# Measurements published in the supplement of paper PMC10307832.
# Experiments:
# Experiment in all cases: relative viability (nuclei count vs DMSO), 5 days (fraction); higher = more cells survive
# [1] = compound: CC1=CC(=CC=C1)NC2=NC(=CS2)C3=CC=NC=C3 + CS(=O)(=O)CCNCc1ccc(-c2ccc3ncnc(Nc4ccc(OCc5cccc(F)c5)c(Cl)c4)c3c2)o1 [Lapatinib] (partner 2 µM)
# How it was run: (§1)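 Dosing by pin tool came one day after lung cancer cell lines were seeded in 1536-well plates, using either one drug or a fixed anchor-drug dose plus five library-drug doses (not always all listed) in √10 steps. After 5 days, nuclei were counted on 4× images. Relative viability is treated-well nuclei count divided by vehicle-well nuclei count, and values are medians of duplicate plates.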
# [2] = compound: CC1=CC(=CC=C1)NC2=NC(=CS2)C3=CC=NC=C3 + CS(=O)(=O)N1CCN(Cc2cc3nc(-c4cccc5[nH]ncc45)nc(N4CCOCC4)c3s2)CC1 [Pictilisib] (partner 1 µM)
# How it was run: as §1
# Masitinib + Lapatinib = compound: Cc1ccc(NC(=O)c2ccc(CN3CCN(C)CC3)cc2)cc1Nc1nc(-c2cccnc2)cs1 [Masitinib] + CS(=O)(=O)CCNCc1ccc(-c2ccc3ncnc(Nc4ccc(OCc5cccc(F)c5)c(Cl)c4)c3c2)o1 [Lapatinib] (partner 2 µM)
# How it was run: as §1
# Masitinib + Alpelisib = compound: Cc1ccc(NC(=O)c2ccc(CN3CCN(C)CC3)cc2)cc1Nc1nc(-c2cccnc2)cs1 [Masitinib] + Cc1nc(NC(=O)N2CCC[C@H]2C(N)=O)sc1-c1ccnc(C(C)(C)C(F)(F)F)c1 [Alpelisib] (partner 2 µM)
# How it was run: as §1
Cell Line,relative viability ([1]; first compound 0.08 µM),relative viability ([1]; first compound 0.253 µM),relative viability ([1]; first compound 0.8 µM),relative viability ([1]; first compound 2.53 µM),relative viability ([1]; first compound 8 µM),relative viability ([2]; first compound 0.08 µM),relative viability ([2]; first compound 0.253 µM),relative viability ([2]; first compound 0.8 µM),relative viability ([2]; first compound 2.53 µM),relative viability ([2]; first compound 8 µM),relative viability (Masitinib + Lapatinib; first compound 0.01 µM),relative viability (Masitinib + Lapatinib; first compound 0.03162 µM),relative viability (Masitinib + Lapatinib; first compound 0.1 µM),relative viability (Masitinib + Lapatinib; first compound 0.3162 µM),relative viability (Masitinib + Lapatinib; first compound 1 µM),relative viability (Masitinib + Alpelisib; first compound 0.01 µM),relative viability (Masitinib + Alpelisib; first compound 0.03162 µM),relative viability (Masitinib + Alpelisib; first compound 0.1 µM),relative viability (Masitinib + Alpelisib; first compound 0.3162 µM),relative viability (Masitinib + Alpelisib; first compound 1 µM)
NCI-H322M,0.538,0.518,0.519,0.572,0.662,0.446,0.452,0.372,0.495,0.622,0.55,0.623,0.573,0.603,0.53,0.782,0.778,0.932,0.763,0.793
NCI-H520,0.883,0.827,0.932,0.777,0.954,0.281,0.346,0.301,0.278,0.299,0.949,–,0.944,0.82,0.917,0.914,–,0.966,0.826,1.02
NCI-H661,0.481,0.506,0.573,0.468,0.507,0.447,0.47,0.407,0.397,0.489,0.52,0.229,0.566,0.492,0.41,0.748,0.577,0.623,0.384,0.47
NCI-H727,0.489,0.777,0.674,0.706,0.668,0.26,0.287,0.313,0.343,0.375,0.923,0.95,0.857,0.914,0.68,0.652,0.657,0.517,0.603,0.74
NCI-H1944,0.707,0.783,0.812,0.626,0.613,0.29,0.309,0.327,0.304,0.297,–,0.743,0.584,0.695,0.906,–,0.78,0.925,0.699,0.84
NCI-H1755,1.01,1.04,0.843,0.902,0.707,0.339,0.401,0.338,0.344,0.367,–,0.998,0.711,1.07,0.995,–,0.847,1.01,0.972,0.833
NCI-H1299,0.969,0.938,0.933,0.946,0.84,0.779,0.839,0.779,0.88,0.899,0.922,0.961,0.991,0.976,0.945,1.1,1.1,1.27,1.11,1.05
H3255,0.225,0.325,0.203,0.195,0.211,0.535,0.552,0.542,0.526,0.408,–,0.268,0.243,0.213,0.248,–,0.84,0.766,0.49,0.675
201T,0.982,0.956,0.97,0.767,0.752,0.547,0.537,0.598,0.565,0.602,0.763,1.01,0.811,0.882,1.03,0.866,1.01,0.978,0.877,0.989
